84 molecules from the SangsterLogP compilation can be followed below.

The structures appear in SMILES notation.

For this data set the following is noted: pH 7.4.

`O=c1cc(O)c2c(=O)n(-c3ccccc3)c3ccccc3c2o1`: the logD was 0.96.
`CC(=O)N1CCN(CCOc2ccc(C3(O)CCN(c4ccc5nnc(C(F)(F)F)n5n4)CC3)cc2)CC1` came in with a logD of 2.2.
The figure for `N#CC1(NC(=O)[C@@H]2CCCC[C@H]2C(=O)N2CCN(c3nc4cnccc4s3)CC2)CC1` is 1.66; for `N#CCNC(=O)[C@@H]1CCCC[C@H]1C(=O)N1CCN(c2ccc(C#N)cc2)CC1` it is 1.79; for `CCCSc1c(C(=O)NC2CCCCC2)cnn1C` it is 2.99.
The figure for `CC1(C)COCc2sc(N3CCN(C(=O)[C@@H]4CCCC[C@H]4C(=O)NC4(C#N)CC4)CC3)nc21` is 2.4; for `CC(C)(C)OC(=O)N1CCN(c2ccc(OCc3ccc(S(C)(=O)=O)cc3)nn2)CC1` it is 2.8.
The figure for `CS(=O)(=O)Cc1cc(N2CCOCC2)nc(-c2cccc3[nH]ccc23)n1` is 1.7; for `CS(=O)(=O)Cc1cc(N2CCOCC2)nc(-c2ccc(NS(C)(=O)=O)cc2)n1` it is 0.85; for `CS(=O)(=O)c1ccc2nc(N3CCN(C(=O)[C@@H]4CCCC[C@H]4C(=O)NC4(C#N)CC4)CC3)sc2c1` it is 1.49.
`COc1cc(OC)c(S(=O)(=O)N2c3ccccc3Oc3ccccc32)cc1NC(=O)Cc1ccnc(F)c1` displayed a pH-dependent lipophilicity (logD) of 3.37.
Next, `N#CC1(NC(=O)[C@@H]2CCCC[C@H]2C(=O)N2CCN(c3nc4ccncc4s3)CC2)CC1`: 1.6; `Cc1ncc(-c2ccnc(Nc3ccc(S(=O)(=O)CCCN(C)C)cc3)n2)n1C(C)C`: 1.32.
Next, `Cc1ncc(-c2ccnc(Nc3ccc(N4CCN(S(C)(=O)=O)CC4)cc3)n2)n1C(C)C`: 2.57.
The figure for `CS(=O)(=O)c1cccc2c3c([nH]c12)CCN(C(=O)[C@@H]1CCCC[C@H]1C(=O)NC1(C#N)CC1)C3` is 1.7; for `N#CC1(NC(=O)[C@@H]2CCCC[C@H]2C(=O)N2CCc3[nH]c4c(F)cccc4c3C2)CC1` it is 3.03.
`Cc1sc(N2CCN(C(=O)[C@@H]3CCCC[C@H]3C(=O)NC3(C#N)CC3)CC2)nc1C(F)(F)F`: the log distribution coefficient (logD) was determined as 2.87.
The figure for `CS(=O)(=O)c1ccc2c3c([nH]c2c1)CCN(C(=O)[C@@H]1CCCC[C@H]1C(=O)NC1(C#N)CC1)C3` is 1.5.
Next, `CCNC(=O)c1cc2c(-n3ccc(C(F)(F)F)n3)c(-c3cncc(C(=O)NC)c3)cnc2[nH]1`: 2.21; `CS(=O)(=O)Cc1cc(N2CCOCC2)nc(-c2ccccc2)n1`: 1.94.
`Cc1ccc(-c2cccc(-c3nn[nH]n3)c2)cc1` registered a logD of 1.3.
Next, `CS(=O)(=O)C1(c2cc(N3CCOCC3)nc(-c3cccc4[nH]ccc34)n2)CCOCC1`: 2.4.
The figure for `Cc1noc2cc(N3CCN(C(=O)[C@@H]4CCCC[C@H]4C(=O)NC4(C#N)CC4)[C@H](C)C3)ccc12` is 2.67; for `CCNC(=O)c1cc2c(-n3ccc(C(F)(F)F)n3)c(-c3cncc(C#N)c3)cnc2[nH]1` it is 2.62.
The figure for `O=c1cc(-c2ccccc2)nc2cc[nH]n12` is 1.3; for `CCS(=O)(=O)c1ccc(-c2cc(C(F)(F)F)ccc2OCC(N)=O)c(C)c1` it is 2.77; for `O=S(=O)(Cc1cc(N2CCOCC2)nc(-c2ccccn2)n1)c1ccccc1` it is 1.34.
With `COc1cc2ncnc(Nc3cccc(Cl)c3F)c2cc1OC1CCN(CC(N)=O)CC1`, the log distribution coefficient (logD) was found to be 3.1.
Next, `N#CC1(NC(=O)[C@@H]2CCCC[C@H]2C(=O)N2CCc3[nH]c4ccc(C(F)(F)F)cc4c3C2)CC1`: 4.2.
Next, `N#CC1(NC(=O)[C@@H]2CCCC[C@H]2C(=O)N2CCN(c3nc(-c4ccccc4)cs3)CC2)CC1`: 3.5; `CS(=O)(=O)c1cccc(Nc2nccc(Nc3c(Cl)ccc4c3OCO4)n2)c1`: 3.13.
The molecule `CC(C)(C)OC(=O)N1CCN(c2ncc(OCc3ccncc3F)cn2)CC1` displayed a logD of 3.6.
As for `CS(=O)(=O)C1(c2cc(N3CCOCC3)nc(-c3cccc4[nH]ccc34)n2)CC1`, the pH-dependent lipophilicity (logD) was 2.2.
Next, `Cc1ncc(-c2nc(Nc3ccc(N4CCOCC4)cc3)ncc2F)n1C(C)C`: 3.01.
The figure for `CC(=O)c1ncccc1NC(=O)C1CCC(N2C(=O)[C@@H]3[C@@H]4CC[C@@H](C4)[C@@H]3C2=O)CC1` (some centres undefined) is 3.01.
Next, `COc1ccc(N(C(=O)c2ccoc2Cl)C(C(=O)NC[C@@H](C)O)c2ccccc2F)c(OC)c1` (some centres undefined): 2.36; `CCCSc1ncccc1C(=O)NC1[C@@H]2CC3C[C@H]1CC(O)(C3)C2` (some centres undefined): 2.27.
`N#CC1(NC(=O)[C@@H]2CCCC[C@H]2C(=O)N2CCc3[nH]c4c(C(F)(F)F)cccc4c3C2)CC1` had a logD of 3.75.
Next, `CC(C)c1nc(N2CCN(c3ncc(OCc4ccncc4C#N)cn3)[C@H](C)C2)no1`: 3.3.
`N#Cc1cnc(N2CCN(C(=O)[C@@H]3CCCC[C@H]3C(=O)NC3(C#N)CC3)CC2)s1` displayed a pH-dependent lipophilicity (logD) of 1.2.
The molecule `CC(C)c1ccc2[nH]c3c(c2c1)CN(C(=O)[C@@H]1CCCC[C@H]1C(=O)NC1(C#N)CC1)CC3` gave a pH-dependent lipophilicity (logD) of 4.1.
For the molecule `N#CC1(NC(=O)[C@@H]2CCCC[C@H]2C(=O)N2CCN(c3nccs3)CC2)CC1`, the log distribution coefficient (logD) was 1.3.
`Cc1nn(C)c2cc(N3CCN(C(=O)[C@@H]4CCCC[C@H]4C(=O)NC4(C#N)CC4)[C@H](C)C3)ccc12` returned a logD of 2.7.
Next, `COCc1ccoc1C(=O)N(c1ccc(OC)cc1OC)C(C(=O)NC[C@@H](C)O)c1ccccc1F` (some centres undefined): 1.98; `N#CC1(NC(=O)[C@@H]2CCCC[C@H]2C(=O)N2CCN(c3nc4c(s3)COCC4)CC2)CC1`: 1.42; `N#Cc1cccnc1-c1ccc(C(=O)Nc2ccccc2N)cc1`: 1.58.
The molecule `Fc1ccc(CN2CCN(C3=Nn4c(nnc4C(F)(F)F)CC3)CC2)cc1` returned a pH-dependent lipophilicity (logD) of 2.8.
With `Cc1nc2nc(-c3cccnc3)[nH]n2c(=O)c1Cc1ccccc1`, the logD stood at 1.52.
The figure for `CS(=O)(=O)c1ccc(N2CCN(C(=O)[C@@H]3CCCC[C@H]3C(=O)NCC#N)CC2)cc1` is 0.67; for `Nc1ccccc1NC(=O)c1ccc(-c2ncc(CN3CCC3)cc2F)cc1` it is 1.69; for `COc1ccc(N2CCN(C(=O)[C@@H]3CCCC[C@H]3C(=O)NC3(C#N)CC3)CC2)cc1` it is 1.74.
The figure for `Cc1ncc(-c2nc(Nc3ccc(N4CCN(C(=O)CO)CC4)cc3)ncc2F)n1C(C)C` is 2.19; for `COc1cc(N2CCN(C(=O)[C@@H]3CCCC[C@H]3C(=O)NC3(C#N)CC3)[C@H](C)C2)ccc1C1CC1` it is 3.49; for `CC(C)(C)OC(=O)N1CCC(c2ncc(OCc3ccc(S(C)(=O)=O)cc3)cn2)CC1` it is 2.8.
Next, `C[C@@H]1CN(c2noc(C3CC3)n2)CCN1c1ncc(OCc2ccncc2C#N)cn1`: 3.1; `COc1ccc2[nH]c3c(c2c1)CN(C(=O)[C@@H]1CCCC[C@H]1C(=O)NC1(C#N)CC1)CC3`: 2.4.
With `COc1ccc(N2CCN(C(=O)[C@@H]3CCCC[C@H]3C(=O)NC3(C#N)CC3)CC2)cc1OC`, the logD was 1.4.
Next, `CS(=O)(=O)Cc1cc(N2CCOCC2)nc(-c2ccc3[nH]ccc3c2)n1`: 2.06.
Next, `CN(C(=O)Cc1ccc(-n2cnnn2)cc1)[C@H]1CCN(Cc2ccc(C(F)(F)F)cc2)C[C@H]1F`: 3.3; `COc1cc(OC)c(S(=O)(=O)N2c3ccccc3CCC2C)cc1NC(=O)Cc1ccnc(F)c1` (centres undefined): 2.49.
Next, `Nc1ccccc1NC(=O)c1ccc(N2CCOCC2)cc1`: 1.2; `COc1cnccc1COc1cnc(N2CCN(C(=O)OC(C)(C)C)CC2)nc1`: 3.8.
For the molecule `N#CC1(NC(=O)[C@@H]2CCCC[C@H]2C(=O)N2CCc3[nH]c4c(OC(F)(F)F)cccc4c3C2)CC1`, the logD was found to be 4.01.
Next, `N#CC1(NC(=O)[C@@H]2CCCC[C@H]2C(=O)N2CCc3[nH]c4ccc(Cl)cc4c3C2)CC1`: 3.65.
The figure for `NS(=O)(=O)c1ccc(Nc2nccc(-c3cnc4ccccn34)n2)cc1` is 2.7.
`Cc1nc2nc(NC(=O)c3ccc(F)cc3)[nH]n2c(=O)c1Cc1ccccc1` had a logD of 2.2.
Next, `CCCN(c1cccnc1)P(=O)(c1ccccc1)c1ccccc1`: 2.6; `N#CC1(NC(=O)[C@@H]2CCCC[C@H]2C(=O)N2CCc3[nH]c4cc(F)ccc4c3C2)CC1`: 2.99.
The molecule `C[C@H]1O[C@@H](n2cnc3c(N)nc(OC4CCCC4)nc32)[C@H](O)[C@H]1Cl` showed a logD of 3.18.
Next, `Cc1ncc(-c2ccnc(Nc3ccc(N4CCN(S(=O)(=O)CCN(C)C)CC4)cc3)n2)n1C(C)C`: 2.52.
Next, `CC(C)Oc1cc(OCCN2CCOCC2)cc2ncnc(Nc3c(Cl)ccc4c3OCO4)c12`: 3.68.
Next, `Cc1cnccc1COc1cnc(N2CCN(C(=O)OC(C)(C)C)CC2)nc1`: 3.8.
`N#Cc1ccc(CN2CCN(c3ccc4nnc(C(F)(F)F)n4n3)CC2)cc1` displayed a logD of 2.9.
`C[C@H]1O[C@@H](n2cnc3c(N)nc(O[C@H]4CC[C@H](C)CC4)nc32)[C@H](O)[C@@H]1O`: the logD came to 2.35.
The figure for `CN1CCC(c2cc(N3CCOCC3)nc(-c3cccc4[nH]ccc34)n2)(S(C)(=O)=O)CC1` is 1.9; for `C[C@@H](c1ncncc1F)[C@](O)(Cn1cncn1)c1ccc(F)cc1F` it is 1.7; for `C[C@@H]1CN(c2ccccc2)CCN1C(=O)[C@@H]1CCCC[C@H]1C(=O)NC1(C#N)CC1` it is 2.35.
`CC(C)(C)c1cc2nc3c(c(=O)n2[nH]1)CN(Cc1ccccc1)C3=O` gave a log distribution coefficient (logD) of 1.9.
Consider `O=c1cc(O)c2c(=O)n(Cc3ccccc3)c3ccccc3c2o1`, for which the logD amounted to 1.97.
Next, `COc1ccc(N2CCN(C(=O)[C@@H]3CCCC[C@H]3C(=O)NC3(C#N)CC3)[C@H](C)C2)nc1OC`: 2.3; `CC(C)(C)OC(=O)N1C[C@@H]2CC[C@H]1CN2c1ncc(OCc2ccc(S(C)(=O)=O)cc2)cn1`: 3.4.
`C[C@@H]1CN(c2ncc(F)cn2)CCN1c1ncc(OCc2ccncc2C#N)cn1` had a pH-dependent lipophilicity (logD) of 3.4.
Turning to `CCn1c(=O)c2c(O)cc(=O)oc2c2ccccc21`, the logD came out at 1.13.
The molecule `COC1/C=C\OC2(C)Oc3c(C)c(O)c4c(c3C2=O)C(=O)C=C(NC(=O)/C(C)=C\C=C/C(C)C(O)C(C)C(O)C(C)C(OC(C)=O)C1C)C4=O` (centres undefined) gave a pH-dependent lipophilicity (logD) of 0.7.
